Legend:
bedstraw = experiment: Test B pre/postemergence bedstraw; assay type: in vivo, Galium aparine
Summary of the method: (§1)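 Test chemicals in a non-phytotoxic solvent mixture with surfactant were sprayed preemergence onto planted seeds and postemergence onto plants 2 to 18 cm tall (1- to 4-leaf stage). After twelve to sixteen days in a greenhouse, injury was visually rated against untreated controls from 0 (no effect) to 10 (complete control).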

soybean = experiment: Test B pre/postemergence soybean; assay type: in vivo, Glycine max
Summary of the method: as §1

purple nutsedge = experiment: Test B pre/postemergence purple nutsedge; assay type: in vivo, Cyperus rotundus
Summary of the method: as §1

rape = experiment: Test B pre/postemergence rape; assay type: in vivo, Brassica napus
Summary of the method: as §1

surinam grass = experiment: Test B pre/postemergence surinam grass; assay type: in vivo, Brachiaria decumbens
Summary of the method: as §1

pigweed = experiment: Test B pre/postemergence pigweed; assay type: in vivo, Amaranthus retroflexus
Summary of the method: as §1

corn = experiment: Test B pre/postemergence corn; assay type: in vivo, Zea mays
Summary of the method: as §1

blackgrass = experiment: Test B pre/postemergence blackgrass; assay type: in vivo, Alopecurus myosuroides
Summary of the method: as §1

morningglory = experiment: Test B pre/postemergence morningglory; assay type: in vivo, Ipomoea hederacea
Summary of the method: as §1

wild oat = experiment: Test B pre/postemergence wild oat; assay type: in vivo, Avena fatua
Summary of the method: as §1

smallflower flatsedge = experiment: Test B flood test smallflower flatsedge; assay type: in vivo, Cyperus difformis
Summary of the method: (§2)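 Each value is a visual injury score relative to controls, with 10 meaning complete control and 0 no effect. Evaluation took place twelve to sixteen days after the 2-leaf-stage plants were treated and kept in the greenhouse.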

rice = experiment: Test B flood test rice; assay type: in vivo, Oryza sativa
Summary of the method: as §2

sugar beet = experiment: Test B pre/postemergence sugar beet; assay type: in vivo, Beta vulgaris
Summary of the method: as §1

bamyardgrass = experiment: Test B flood test barnyardgrass; assay type: in vivo, Echinochloa crus-galli
Summary of the method: as §2

cocklebur = experiment: Test B pre/postemergence cocklebur; assay type: in vivo, Xanthium strumarium
Summary of the method: as §1

velvetleaf = experiment: Test B pre/postemergence velvetleaf; assay type: in vivo, Abutilon theophrasti
Summary of the method: as §1

[1] = Postemergence, Rate 125 g/ha, scale of 0 to 10 where 0 is no effect and 10 is complete control
[2] = Preemergence, Rate 62 g/ha, scale 0 to 10 (0 no effect, 10 complete control)
[3] = Preemergence, Rate 125 g/ha, scale of 0 to 10 where 0 is no effect and 10 is complete control
[4] = Preemergence, Rate 250 g/ha, scale 0 to 10 (0 no effect, 10 complete control)
[5] = Preemergence, Rate 500 g/ha, scale of 0 to 10 where 0 is no effect and 10 is complete control
[6] = Postemergence, Rate 62 g/ha, scale 0 to 10, 0 is no effect, 10 is complete control
[7] = Postemergence, Rate 250 g/ha, scale of 0 to 10, 0 is no effect, 10 is complete control
[8] = Postemergence, Rate 500 g/ha, scale of 0 to 10 where 0 is no effect and 10 is complete control
[9] = Rate 62 g/ha, flood test species, Pre-emergence, visual evaluation after twelve to sixteen days
[10] = Rate 125 g/ha, under heading Pre-emergence, flood test species, visual evaluation after twelve to sixteen days
[11] = Rate 250 g/ha, Pre-emergence (flood test species), scale 0 to 10, 0 is no effect, 10 is complete control
[12] = Rate 500 g/ha, Pre-emergence section of Table B, 0 to 10 scale (0 no effect, 10 complete control)

CC(=O)NCn1c(=O)on(C(=O)N(c2ccccc2)C(C)C)c1=O [Compound 621]
Plant response rating, Bedstraw (bedstraw; [1]): 0 | Bedstraw plant response rating (bedstraw; [2]): 0 | Bedstraw plant response rating (bedstraw; [3]): 0 | Plant response rating, Bedstraw (bedstraw; [4]): 0 | Bedstraw plant response rating (bedstraw; [5]): 0 | Plant response rating, Soybean (soybean; [6]): 1 | Plant response rating, Soybean (soybean; [1]): 5 | Soybean plant response rating (soybean; [7]): 5 | Soybean plant response rating (soybean; [2]): 0 | Soybean plant response rating (soybean; [3]): 0 | Plant response rating, Soybean (soybean; [4]): 0 | Plant response rating, Soybean (soybean; [5]): 3 | Plant response rating, Nutsedge (purple nutsedge; [6]): 0 | Plant response rating, Nutsedge (purple nutsedge; [1]): 0 | Nutsedge plant response rating (purple nutsedge; [7]): 0 | Plant response rating, Nutsedge (purple nutsedge; [8]): 0 | Nutsedge plant response rating (purple nutsedge; [2]): 0 | Nutsedge plant response rating (purple nutsedge; [3]): 0 | Plant response rating, Nutsedge (purple nutsedge; [4]): 0 | Plant response rating, Nutsedge (purple nutsedge; [5]): 0 | Plant response rating, Rape (rape; [6]): 0 | Plant response rating, Rape (rape; [1]): 0 | Rape plant response rating (rape; [7]): 0 | Plant response rating, Rape (rape; [8]): 0 | Rape plant response rating (rape; [2]): 0 | Rape plant response rating (rape; [3]): 0 | Plant response rating, Rape (rape; [4]): 0 | Plant response rating, Rape (rape; [5]): 0 | Plant response rating, B. signalgrass (surinam grass; [6]): 0 | Plant response rating, B. signalgrass (surinam grass; [1]): 0 | B. signalgrass plant response rating (surinam grass; [7]): 0 | Plant response rating, B. signalgrass (surinam grass; [8]): 0 | B. signalgrass plant response rating (surinam grass; [2]): 0 | B. signalgrass plant response rating (surinam grass; [3]): 0 | Plant response rating, B. signalgrass (surinam grass; [4]): 0 | B. signalgrass plant response rating (surinam grass; [5]): 0 | Plant response rating, Redroot pigweed (pigweed; [6]): 0 | Plant response rating, Redroot pigweed (pigweed; [1]): 0 | Redroot pigweed plant response rating (pigweed; [7]): 0 | Redroot pigweed plant response rating (pigweed; [2]): 0 | Redroot pigweed plant response rating (pigweed; [3]): 0 | Plant response rating, Redroot pigweed (pigweed; [4]): 0 | Plant response rating, Redroot pigweed (pigweed; [5]): 0 | Plant response rating, Corn (corn; [6]): 0 | Plant response rating, Corn (corn; [1]): 0 | Corn plant response rating (corn; [7]): 0 | Plant response rating, Corn (corn; [8]): 0 | Corn plant response rating (corn; [2]): 0 | Corn plant response rating (corn; [3]): 0 | Plant response rating, Corn (corn; [4]): 0 | Plant response rating, Corn (corn; [5]): 0 | Plant response rating, Blackgrass (blackgrass; [6]): 0 | Plant response rating, Blackgrass (blackgrass; [1]): 0 | Blackgrass plant response rating (blackgrass; [7]): 0 | Plant response rating, Blackgrass (blackgrass; [8]): 0 | Blackgrass plant response rating (blackgrass; [2]): 0 | Blackgrass plant response rating (blackgrass; [3]): 0 | Plant response rating, Blackgrass (blackgrass; [4]): 0 | Blackgrass plant response rating (blackgrass; [5]): 0 | Plant response rating, Morningglory (morningglory; [6]): 1 | Plant response rating, Morningglory (morningglory; [1]): 2 | Morningglory plant response rating (morningglory; [7]): 2 | Plant response rating, Morningglory (morningglory; [8]): 8 | Morningglory plant response rating (morningglory; [2]): 0 | Morningglory plant response rating (morningglory; [3]): 0 | Plant response rating, Morningglory (morningglory; [4]): 0 | Plant response rating, Morningglory (morningglory; [5]): 0 | Plant response rating, Wild oats (wild oat; [6]): 0 | Plant response rating, Wild oats (wild oat; [1]): 0 | Wild oats plant response rating (wild oat; [7]): 0 | Wild oats plant response rating (wild oat; [2]): 0 | Wild oats plant response rating (wild oat; [3]): 0 | Plant response rating, Wild oats (wild oat; [4]): 0 | Plant response rating, Wild oats (wild oat; [5]): 0 | Plant response rating, S. Flatsedge (0 to 10 scale, 0 is no effect, 10 is complete control) (smallflower flatsedge; [9]): 0 | S. Flatsedge plant response rating (0 to 10 scale, 0 is no effect, 10 is complete control) (smallflower flatsedge; [10]): 0 | S. Flatsedge plant response rating (smallflower flatsedge; [11]): 0 | S. Flatsedge plant response rating (smallflower flatsedge; [12]): 0 | Plant response rating, Rice (0 to 10 scale, 0 is no effect, 10 is complete control) (rice; [9]): 0 | Rice plant response rating (0 to 10 scale, 0 is no effect, 10 is complete control) (rice; [10]): 0 | Rice plant response rating (rice; [11]): 0 | Rice plant response rating (rice; [12]): 0 | Plant response rating, Sugarbeets (sugar beet; [6]): 0 | Plant response rating, Sugarbeets (sugar beet; [1]): 0 | Sugarbeets plant response rating (sugar beet; [7]): 0 | Sugarbeets plant response rating (sugar beet; [2]): 0 | Sugarbeets plant response rating (sugar beet; [3]): 0 | Plant response rating, Sugarbeets (sugar beet; [4]): 0 | Plant response rating, Sugarbeets (sugar beet; [5]): 0 | Plant response rating, Barnyardgrass (0 to 10 scale, 0 is no effect, 10 is complete control) (bamyardgrass; [9]): 0 | Barnyardgrass plant response rating (0 to 10 scale, 0 is no effect, 10 is complete control) (bamyardgrass; [10]): 0 | Barnyardgrass plant response rating (bamyardgrass; [11]): 0 | Barnyardgrass plant response rating (bamyardgrass; [12]): 0 | Plant response rating, Cocklebur (cocklebur; [6]): 0 | Plant response rating, Cocklebur (cocklebur; [1]): 0 | Cocklebur plant response rating (cocklebur; [7]): 0 | Plant response rating, Cocklebur (cocklebur; [8]): 0 | Cocklebur plant response rating (cocklebur; [2]): 0 | Cocklebur plant response rating (cocklebur; [3]): 0 | Plant response rating, Cocklebur (cocklebur; [4]): 0 | Plant response rating, Cocklebur (cocklebur; [5]): 0 | Plant response rating, Velvetleaf (velvetleaf; [6]): 0 | Plant response rating, Velvetleaf (velvetleaf; [1]): 0 | Velvetleaf plant response rating (velvetleaf; [7]): 0 | Velvetleaf plant response rating (velvetleaf; [2]): 0 | Velvetleaf plant response rating (velvetleaf; [3]): 0 | Plant response rating, Velvetleaf (velvetleaf; [4]): 0 | Plant response rating, Velvetleaf (velvetleaf; [5]): 0

Reference: patent US6737383B1, “Herbicidal oxadiazolidines” (priority 1999, dated 2004)
